Patent US9115065B2 (priority 2004, dated 2015)
“Also recorded” adds a separate entry of the source. Where two headings read alike, the source gives them in different places.

Tests used:
Tacaribe = experiment: microbe, parasite or virus in culture; format: cell-based; settings: Mammarenavirus tacaribeense, HEK-293T, read-out: Antiviral activity vs. pseudotyped viruses: Tacaribe
Guanarito [1] = experiment: microbe, parasite or virus in culture; format: cell-based; settings: Mammarenavirus guanaritoense, HEK-293T, read-out: Antiviral activity vs. pseudotyped viruses: Guanarito
Machupo [2] = experiment: microbe, parasite or virus in culture; format: cell-based; settings: Mammarenavirus machupoense, HEK-293T, read-out: Antiviral activity vs. pseudotyped viruses: Machupo
VSV = experiment: microbe, parasite or virus in culture; format: cell-based; settings: Vesicular stomatitis virus, HEK-293T, read-out: VSV (μM) (negative control)
Tacaribe virus [3] = experiment: microbe, parasite or virus in culture; format: cell-based
Junín [4] = experiment: microbe, parasite or virus in culture; format: cell-based, Junin virus; settings: Mammarenavirus juninense, HEK-293T, read-out: Antiviral activity vs. pseudotyped viruses: Junín
JUNV GPC = JUNV GPC (Junin mammarenavirus, UniProt P26313); experiment: cell-based; set-up: species or system Junin virus
Sequence of JUNV GPC (P26313 2-58 limits assumed): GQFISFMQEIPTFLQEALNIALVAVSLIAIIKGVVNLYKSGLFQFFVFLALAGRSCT
Sequence of JUNV GPC (P26313 59-251 partner limits assumed): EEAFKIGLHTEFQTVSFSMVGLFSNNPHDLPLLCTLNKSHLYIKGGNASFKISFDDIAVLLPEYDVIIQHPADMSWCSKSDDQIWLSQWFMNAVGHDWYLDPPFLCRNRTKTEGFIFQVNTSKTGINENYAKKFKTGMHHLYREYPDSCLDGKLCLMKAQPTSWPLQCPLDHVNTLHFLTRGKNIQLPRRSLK
Sequence of JUNV GPC (P26313 252-485 limits assumed): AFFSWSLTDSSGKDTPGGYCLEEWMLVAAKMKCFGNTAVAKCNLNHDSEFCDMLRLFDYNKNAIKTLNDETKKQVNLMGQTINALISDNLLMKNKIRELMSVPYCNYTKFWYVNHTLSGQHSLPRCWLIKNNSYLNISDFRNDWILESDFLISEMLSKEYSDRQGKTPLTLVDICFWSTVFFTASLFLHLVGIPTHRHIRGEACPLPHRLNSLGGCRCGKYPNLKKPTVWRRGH

icd-GPC [5] = format: binding, Junin virus
icd-GPC [6] = format: binding, Junin virus; remark: listed apart in the source
Tacaribe virus [7] = format: cell-based; settings: read-out: Tacaribe (Plaque reduction) EC50
Machupo [8] = format: cell-based, Machupo virus; settings: read-out: Machupo (Plaque reduction) EC50
Guanarito [9] = format: cell-based, Guanarito virus; settings: read-out: Guanarito (Plaque reduction) EC50
Junín [10] = format: cell-based, Junin virus; settings: read-out: Junin (Plaque reduction) EC50
Tacaribe virus [11] = tested on: Tacaribe virus; set-up: species or system BALB/c mice; settings: mouse, in vivo
[12] = tested on: drug resistant Tacaribe mutants; format: cell-based, Tacaribe virus
[13] = tested on: S. typhimurium tester strains TA7007 and TA7006 and TA98
[14] = in vivo
[15] = in vivo; remark: listed apart in the source
[16] = mouse, in vivo, ip, 100 mg/kg/day

Compound	EC50 (Tacaribe) [nM]	EC50 (Guanarito [1]) [nM]	EC50 (Machupo [2]) [nM]	EC50 (VSV) [µM]	other results
CCC(NC(=O)NNS(=O)(=O)c1c(C)cc(C)cc1C)(C(F)(F)F)C(F)(F)F [Compound 99, 1-[1,1-bis(trifluoromethyl)propyl]-3-[(2,4,6-trimethylphenyl)sulfonylamino] urea]	< 1000	< 1000	< 1000	> 30	–
CCC(NC(=O)NNS(=O)(=O)c1ccc(C(C)(C)C)cc1)(C(F)(F)F)C(F)(F)F [Compound 100, 1-[1,1-bis(trifluoromethyl)propyl]-3-[(4-tert-butylphenyl)sulfonylamino]urea]	< 1000	< 1000	< 1000	19.7	–
CCC(NC(=O)NNS(=O)(=O)c1cc(OC)ccc1OC)(C(F)(F)F)C(F)(F)F [Compound 101, 1-[1,1-bis(trifluoromethyl)propyl]-3-[(2,5-dimethoxyphenyl)sulfonylamino] urea]	< 1000	< 1000	< 1000	> 30	–
CCC(NC(=O)NNS(=O)(=O)c1ccc2ccccc2c1)(C(F)(F)F)C(F)(F)F [Compound 102, 1-[1,1-bis(trifluoromethyl)propyl]-3-(2-naphthylsulfonylamino)urea]	< 1000	< 1000	< 1000	> 20	–
CCC(NC(=O)NNS(=O)(=O)c1ccc(C(C)C)cc1)(C(F)(F)F)C(F)(F)F [Compound 103, 1-[1,1-bis(trifluoromethyl)propyl]-3-[(4-isopropylphenyl)sulfonylamino] urea]	< 1000	< 1000	< 1000	> 20	–
CCC(NC(=O)NNS(=O)(=O)c1cc(Cl)ccc1OC)(C(F)(F)F)C(F)(F)F [Compound 104, 1-[1,1-bis(trifluoromethyl)propyl]-3-[(5-chloro-2-methoxy-phenyl)sulfonylamino]urea]	< 1000	< 1000	< 1000	> 30	–
CCC(NC(=O)NNS(=O)(=O)c1ccccc1-c1ccccc1)(C(F)(F)F)C(F)(F)F [Compound 105, 1-[1,1-bis(trifluoromethyl)propyl]-3-[(2-phenylphenyl)sulfonylamino] urea]	< 1000	< 1000	< 1000	> 30	–
CCC(NC(=O)NNS(=O)(=O)c1ccc(Cl)c(Cl)c1)(C(F)(F)F)C(F)(F)F [Compound 106, 1-[1,1-bis(trifluoromethyl)propyl]-3-[(3,4-dichlorophenyl)sulfonylamino]urea]	< 1000	< 1000	< 1000	> 30	–
CCC(NC(=O)NNS(=O)(=O)c1ccc(Br)cc1)(C(F)(F)F)C(F)(F)F [Compound 107, 1-[1,1-bis(trifluoromethyl)propyl]-3-[(4-bromophenyl)sulfonylamino] urea]	< 1000	< 1000	< 1000	> 30	–
CCC(NC(=O)NNS(=O)(=O)c1ccc(OC(F)F)cc1)(C(F)(F)F)C(F)(F)F [Compound 108, 1-[1,1-bis(trifluoromethyl)propyl]-3-[[4-(difluoromethoxy)phenyl]sulfonyl-amino]urea]	–	–	–	–	EC50 (Tacaribe virus [3]; Mammarenavirus tacaribeense, Vero, read-out: Tacaribe (result of cytopathic effect assay)): < 1000 nM
CCC(NC(=O)NNS(=O)(=O)c1cc(C)cc(C)c1)(C(F)(F)F)C(F)(F)F [Compound 109, 1-[1,1-bis(trifluoromethyl)propyl]-3-[(3,5-dimethylphenyl)sulfonylamino] urea]	< 1000	< 10000	< 10000	> 30	–
CCC(NC(=O)NNS(=O)(=O)c1cccc2c(N(C)C)cccc12)(C(F)(F)F)C(F)(F)F [Compound 110, 1-[1,1-bis(trifluoromethyl)propyl]-3-[[5-(dimethylamino)-1-naphthyl]sulfonylamino]urea]	< 1000	< 10000	< 1000	> 30	EC50 (Junín [4]): < 1000 nM; EC50 (JUNV GPC): 600 nM; dansyl fluorescence at 525 nm on binding to solubilized icd-GPC (icd-GPC [5]): increase in a time-dependent manner
CCC(NC(=O)NNS(=O)(=O)c1cccc2ccccc12)(C(F)(F)F)C(F)(F)F [Compound 111, 1-[1,1-bis(trifluoromethyl)propyl]-3-(1-naphthylsulfonylamino)urea]	< 1000	< 1000	< 1000	> 30	–
CCC(NC(=O)NNS(=O)(=O)c1ccc2c(c1)OCCN2C)(C(F)(F)F)C(F)(F)F [Compound 112, 1-[1,1-bis(trifluoromethyl)propyl]-3-[(4-methyl-2,3-dihydro-1,4-benzoxazin-7-yl)sulfonylamino] urea]	< 1000	< 10000	< 1000	> 30	–
CCC(NC(=O)NNS(=O)(=O)c1cc(OCC(F)(F)F)ccc1OCC(F)(F)F)(C(F)(F)F)C(F)(F)F [Compound 113, 1-[[2,5-bis(2,2,2-trifluoroethoxy)phenyl]sulfonyl-amino]-3-[1,1-bis(trifluoromethyl)propyl]urea]	< 1000	< 1000	< 1000	21	–
CCC(NC(=O)NNS(=O)(=O)c1ccc(-c2csnn2)cc1)(C(F)(F)F)C(F)(F)F [Compound 114, 1-[1,1-bis(trifluoromethyl)propyl]-3-[[4-(thiadiazol-4-yl)phenyl]sulfonylamino]urea]	< 1000	< 1000	< 1000	> 30	EC50 (Junín [4]): < 1000 nM
CCC(NC(=O)NNS(=O)(=O)c1cc(Br)ccc1OC)(C(F)(F)F)C(F)(F)F [Compound 115, 1-[1,1-bis(trifluoromethyl)propyl]-3-[(5-bromo-2-methoxy-phenyl)sulfonylamino]urea]	< 1000	< 1000	< 1000	> 30	–
CCC(NC(=O)NNS(=O)(=O)c1ccc(-c2ccccc2)cc1)(C(F)(F)F)C(F)(F)F [Compound 116, 1-[1,1-bis(trifluoromethyl)propyl]-3-[(4-phenylphenyl)sulfonylamino] urea]	< 1000	< 10000	< 1000	> 20	–
CC(NC(=O)Nc1ccccc1C(F)(F)F)(C(F)(F)F)C(F)(F)F [Example 97, 1-(2-Trifluoromethylphenyl)-3-(2,2,2-trifluoro-1-methyl-1-trifluoromethylethyl)-urea]	–	–	–	–	EC50 (Tacaribe virus [3]; Mammarenavirus tacaribeense, Vero, read-out: Tacaribe EC50): > 5000 nM
COc1ccc(-n2cnc3cc(NCc4ccc(C(C)C)cc4)ccc32)cc1 [ST-193, reference compound]	–	–	–	–	displacement of bound ST-375 from icd-GPC (icd-GPC [6]): displaced from icd-GPC in a time- and concentration-dependent manner
N-2-(1,1,1,3,3,3-hexafluoro-1-methylpropyl)-2-[(4-difluoromethoxyphenyl)sulfonyl]hydrazine-1-carboxamide [ST-294]	–	–	–	–	Tacaribe virus CPE EC50 (Tacaribe virus [3]): 0.066 µg/mL; EC50 (Tacaribe virus [3]; read-out: Tacaribe (CPE) EC50): 120 nM; EC50 (Tacaribe virus [7]): 100 nM; EC50 (Machupo [8]): 300 nM; EC50 (Guanarito [9]): 1000 nM; EC50 (Junín [10]): 300 nM; efficacy (survival) in Tacaribe infected newborn mice (Tacaribe virus [11]): both survival and a delay in death similar to the drug control; also recorded: significant protection against Tacaribe virus induced disease; displacement of bound ST-375 from icd-GPC (icd-GPC [6]): displaced from icd-GPC in a time- and concentration-dependent manner; susceptibility of ST-336 drug resistant Tacaribe variants [12]: all of the mutants elicited cross-resistance; CC50 (Vero cells): > 50000 nM; Genotoxicity (Ames test) [13]: negative; PK (rat/oral) ½ life [14]: 2 h; Cmax (serum levels) ([14]; rat, po): 6670 ng/mL; PK (newborn mouse/IP) Cmax [15]: 2910 ng/mL; PK (newborn mouse/IP) ½ life [15]: 3 h; tolerability [16]: well tolerated
